Test results as given in patent US10689390B2, “Tricyclic fused derivatives of 1-(cyclo)alkyl pyridin-2-one useful for the treatment of cancer” (JUBILANT BIOSYS LIMITED, priority 2015, dated 2020).

Experiments:
BRD4-BD1 = BRD4-BD1 (Homo sapiens (Human), UniProt O60885); assay: BRD4 AlphaLISA (Perkin Elmer); type: binding; conditions: 5 nM BRD4-BD1, 12 nM biotinylated substrate, read-out: BRD4_BD1 IC50_μM
Experimental: BRD4 AlphaLISA (Perkin Elmer)
Compounds were diluted by step-down dilution method (final concentration of DMSO was 1%) and added to the wells of a 384 well opti plate at desired concentrations. 5 nM BDR4-BD1 enzyme (produced in-house) and 12 nM of biotinylated substrate were added to the wells, covered and incubated at room temperature (RT) for 1 h. At the end of 1 h 250 ng of GSH acceptor beads were added to the well and incubated for 1 h at RT; then 500 ng of streptavidin donor beads were added and incubated again for 1 h at RT. Plates were read in a Pherastar reader at 680 nm excitation and 570 nm emission. As detailed above, compounds were tested for both BRD4 enzyme inhibitory activities and IC50 were determined.

AML cell line MV4-11 = assay: Anticancer activity: Alamar Blue 3-day proliferation assay; type: cell-based; conditions: Homo sapiens, MV4-11 cells, 72 h incubation, read-out: MV4-11 EC50_μM
Experimental: Anticancer Activity: Alamar Blue Assay
The impact of the compounds on cancer cell proliferation was determined using the AML cell line MV4-11 (ATCC) in a 3-day proliferation assay. MV4-11 cells were maintained in RPMI supplemented with 10% FBS at 37° C., 5% CO2. For compound testing, MV4-11 cells were plated in a 96-well black bottom plate at a density of 15,000 cells/well in 100 μL culture media and incubated at 37° C. overnight. Compound dilution series were prepared in DMSO via a 3-fold serial dilution from […]. The DMSO dilution series were then diluted with media, with the final compound concentrations added to the wells ranging from […]. […] The fluorescent readings from the Alamar Blue assay were normalized to the DMSO treated cells and analyzed using the GraphPad Prism software with sigmoidal curve fitting to obtain EC50.

Structure (SMILES)	IC50 (BRD4-BD1) [nM]	EC50 (AML cell line MV4-11) [nM]
CCOC(=O)CC1N=C(C)c2cc(OC)ccc2-c2cn(C)c(=O)cc21 (racemic) [Compound 19, ±Ethyl-2-(9-methoxy-2,7-dimethyl-3-oxo-3,5-dihydro-2H-benzo[c]pyrido[3,4-e]azepin-5-yl)acetate]	176	–
CCNC(=O)CC1N=C(C(F)(F)F)c2cc(OC)ccc2-c2cn(C)c(=O)cc21 (racemic) [Compound 32, ±2-(9-methoxy-2-methyl-3-oxo-7-(trifluoromethyl)-3,5-dihydro-2H-benzo[c]pyrido[3,4-e]azepin-5-yl)-N-ethylacetamide]	49	108
CCNC(=O)CC1N=C(c2ccccn2)c2cc(OC)ccc2-c2cn(C)c(=O)cc21 (racemic) [Compound 27, ±2-(9-methoxy-2-methyl-3-oxo-7-(pyridin-2-yl)-3,5-dihydro-2H-benzo[c]pyrido[3,4-e]azepin-5-yl)-N-ethylacetamide]	4.4	112
COc1ccc2c(c1)C(c1ccc(Cl)cc1)=NC(CC(N)=O)c1cc(=O)n(C)cc1-2 (racemic) [Compound 28, ±2-(7-(4-chlorophenyl)-9-methoxy-2-methyl-3-oxo-3,5-dihydro-2H-benzo[c]pyrido[3,4-e]azepin-5-yl)acetamide]	36	326
CCNC(=O)CC1N=C(c2ccc(Cl)cc2C)c2cc(OC)ccc2-c2cn(C)c(=O)cc21 (racemic) [Compound 39, ±2-(7-(4-chloro,2-methylphenyl)-9-methoxy-2-methyl-3-oxo-3,5-dihydro-2H-benzo[c]pyrido[3,4-e]azepin-5-yl)-N-ethylacetamide]	4	8
CCNC(=O)CC1N=C(c2c(F)cccc2F)c2cc(OC)ccc2-c2cn(C)c(=O)cc21 (racemic) [Compound 38, ±2-(7-(2,6-difluorophenyl)-9-methoxy-2-methyl-3-oxo-3,5-dihydro-2H-benzo[c]pyrido[3,4-e]azepin-5-yl)-N-ethylacetamide]	< 0.5	13
CCOC(=O)CC1N=C(C(F)(F)F)c2cc(OC)ccc2-c2cn(C)c(=O)cc21 (racemic) [Compound 18, ±Ethyl-2-(9-methoxy-2-methyl-3-oxo-7-(trifluoromethyl)-3,5-dihydro-2H-benzo[c]pyrido[3,4-e]azepin-5-yl)acetate]	122	–
CCNC(=O)CC1N=C(c2ccc(Cl)cc2)c2cc(OC)ccc2-c2cn(C)c(=O)cc21 (racemic) [Compound 25, ±2-(7-(4-chlorophenyl)-9-methoxy-2-methyl-3-oxo-3,5dihydro-2H-benzo[c]pyrido[3,4-e]azepin-5-yl)-N-ethylacetamide]	–	3

The next lines start with the values.

IC50 (BRD4-BD1) [nM]	EC50 (AML cell line MV4-11) [nM]	Structure (SMILES)
10	1	CCOC(=O)CC1OC(C2CCCCC2)c2cc(OC)ccc2-c2cn(C)c(=O)cc21 (racemic) [Compound 2, ±Ethyl-2-(7-cyclohexyl-9-methoxy-2-methyl-3-oxo-2,3,5,7-tetrahydrobenzo[5,6]oxepino[4,3-c]pyridin-5-yl)acetate]
–	2	CCOC(=O)CC1N=C(c2ccc(Cl)cc2)c2cc(OC)ccc2-c2cn(C)c(=O)cc21 (racemic) [Compound 14, ±-Ethyl-2-(7-(4-chlorophenyl)-9-methoxy-2-methyl-3-oxo-3,5-dihydro-2H-benzo[c]pyrido[3,4-e]azepin-5-yl)acetate]
10	118	CCNC(=O)CC1N=C(CC2CC2)c2cc(OC)ccc2-c2cn(C)c(=O)cc21 (racemic) [Compound 30, ±2-(7-(cyclopropylmethyl)-9-methoxy-2-methyl-3-oxo-3,5-dihydro-2H-benzo[c]pyrido[3,4-e]azepin-5-yl)-N-ethylacetamide]
24	–	CCOC(=O)CC1OC(c2ccc(Cl)cc2)c2cc(OC)ccc2-c2cn(C)c(=O)cc21 (racemic) [Compound 1, ±Ethyl 2-(-7-(4-chlorophenyl)-9-methoxy-2-methyl-3-oxo-2,3,5,7-tetrahydrobenzo[5,6]oxepino[4,3-c]pyridin-5-yl)acetate]
61	175	CCNC(=O)CC1OC(c2ccc(C)cn2)c2cc(OC)ccc2-c2cn(C)c(=O)cc21 (racemic) [Compound 11, ±2-(9-methoxy-2-methyl-7-(5-methylpyridin-2-yl)-3-oxo-2,3,5,7-tetrahydrobenzo[5,6]oxepino[4,3-c]pyridin-5-yl)-N-ethylacetamide]
12	24	CCNC(=O)C[C@H]1O[C@H](c2ccc(Cl)cc2)c2cc(OC)ccc2-c2cn(C)c(=O)cc21 [Compound 8F, 2-((5R,7R)-7-(4-chlorophenyl)-9-methoxy-2-methyl-3-oxo-2,3,5,7-tetrahydrobenzo[5,6]oxepino[4,3-c]pyridin-5-yl)-N-ethylacetamide]
1	5	CCOC(=O)CC1N=C(c2c(F)cccc2F)c2cc(OC)ccc2-c2cn(C)c(=O)cc21 (racemic) [Compound 23, ±Ethyl-2-(7-(2,6-difluorophenyl)-9-methoxy-2-methyl-3-oxo-3,5-dihydro-2H-benzo[c]pyrido[3,4-e]azepin-5-yl)acetate]
2	8	CCNC(=O)CC1N=C(C2CCCCC2)c2cc(OC)ccc2-c2cn(C)c(=O)cc21 (racemic) [Compound 26, ±2-(7-cyclohexyl-9-methoxy-2-methyl-3-oxo-3,5-dihydro-2H-benzo[c]pyrido[3,4-e]azepin-5-yl)-N-ethylacetamide]
4	28	CCNC(=O)CC1N=C(c2ccc(Cl)cc2)c2cc(F)ccc2-c2cn(C)c(=O)cc21 (racemic) [Compound 37, ±2-(7-(4-chlorophenyl)-9-fluoro-2-methyl-3-oxo-3,5-dihydro-2H-benzo[c]pyrido[3,4-e]azepin-5-yl)-N-ethylacetamide]
77	40	CCNC(=O)CC1N=C(c2ccc(Cl)cc2)c2cc(C(F)(F)F)ccc2-c2cn(C)c(=O)cc21 (racemic) [Compound 35, ±2-(7-(4-chlorophenyl)-2-methyl-3-oxo-9-(trifluoromethyl)-3,5-dihydro-2H-benzo[c]pyrido[3,4-e]azepin-5-yl)-N-ethylacetamide]
